According to patent publication US20030207843A1, “Treatment of drug-resistant human immunodeficiency virus infection” (priority 1999, published 2003):

Tested on: HIV-1LAI M164I/4XAZT
Experiment: p24 reduction assay in MT-2 cells, M164I/4XAZT
Format: cell-based
Settings: Table 8
Procedure: Cells. MT-2 cells (AIDS Research and Reference Reagent Program, National Institute of Allergy and Infectious Diseases, National Institutes of Health) were maintained in RPMI 1640 supplemented with 10% fetal bovine serum (FBS; JRH Biosciences, Lenexa, Kans.), 10 mM HEPES buffer, 50 IU/ml penicillin and 50 μg/ml streptomycin.
Antiviral Susceptibility Assays. The antiviral activity of each compound was determined by inoculating MT-2 cells with HIV-1LAI at a multiplicity of infection (MOI) of 0.01 TCID50/cell, followed by incubation in the presence of three-fold serial drug dilutions (3 wells per dilution) (see Mellors, et. al., Antimicrob. Agents Chemother. 39:1087-1092). Five or seven days after infection, culture supernatants were harvested, lysed with 0.5% triton-X 100 and assayed for p24 antigen concentration using a commercial ELISA assay (DuPont, NEN Products, Wilmington, Del.). The antiviral activity of the compounds is expressed as the IC50, which is the concentration required to inhibit 50% of p24 antigen production. The fold-resistance of a test virus is calculated by dividing the IC50 of the test virus by the IC50 of the HIV-1LAI control virus.
Generation of Mutant Recombinant HIV-1. […]
Recombinant viruses containing the mutations selected by invention compounds were also evaluated for their susceptibility to AZT, as shown in Table 8.

Work on Cc1cn([C@H]2C[C@H](N=[N+]=[N-])[C@@H](CO)O2)c(=O)[nH]c1=O [AZT, 3′-Azido-3′-deoxythymidine] yielded an EC50 (Human immunodeficiency virus 1, MT2, M164I/4XAZT, read-out: AZT EC50) of 43 ± 22 nM and a Fold resistance (M164I/4XAZT relative to wild type virus) of 1.1.
